Assay results from paper PMC3481155, “AhR activation underlies the CYP1A autoinduction by A-998679 in rats” (Frontiers in Genetics, 2012).

Key:
CYP1A2 = CYP1A2 mRNA induction in primary human hepatocytes; assay type: cell-based; conditions: 24 h, dose-dependent
Protocol: Rat hepatocytes were isolated in a perfusion procedure as described previously (Elliget and Kolaja, [1983]; Waring et al., [2001]). The beagle dog hepatocytes were isolated in the same manner, except for adjustment of flow rate and buffer volume to scale to liver size. Cells were plated at a seeding density of 1.0 × 10^6 cells per well on 6-well, collagen-type I coated plates (BD Biosciences, Bedford, MA) in hepatocyte plating medium (Celsis, Baltimore, MD). Cells were allowed to attach for 24 h in a 37°C humidified incubator with a 5% CO2 atmosphere and were dosed for 24 h (rat) or 48 h (dog) with vehicle control [0.1% DMSO (v/v)] or 10 μM A-998679 in fresh treatment media (Celsis hepatocyte incubation media) every 24 h. After the last incubation, cells were lysed in 1 ml of Qiazol (Qiagen) and stored at −80°C until RNA isolation. Cryopreserved human hepatocytes (donor designation Hu4198; Invitrogen Life Technologies, Carlsbad, CA) were thawed and plated according to the manufacturer's protocol and allowed to incubate for 24 h. […]
RNA samples were diluted with RNase-free molecular biology grade water to a concentration of 20 ng/μl total RNA. […] Results were analyzed by calculating the fold change of CYP1A1 and/or CYP1A2 mRNA levels normalized to 28S rRNA (ΔΔ Ct) in compound treated cells or tissues compared to vehicle levels. […]

rat Cyp 2A1 = target: T1, rat Cyp 2A1 (Rattus norvegicus, UniProt P11711); assay: Recombinant rat Cyp phenotype profiling, 2A1; assay type: in vitro ADME; conditions: 60 min
T1 construct: purchased BD Gentest; host or cells: baculovirus infected insect cells
T1 sequence (P11711 whole entry): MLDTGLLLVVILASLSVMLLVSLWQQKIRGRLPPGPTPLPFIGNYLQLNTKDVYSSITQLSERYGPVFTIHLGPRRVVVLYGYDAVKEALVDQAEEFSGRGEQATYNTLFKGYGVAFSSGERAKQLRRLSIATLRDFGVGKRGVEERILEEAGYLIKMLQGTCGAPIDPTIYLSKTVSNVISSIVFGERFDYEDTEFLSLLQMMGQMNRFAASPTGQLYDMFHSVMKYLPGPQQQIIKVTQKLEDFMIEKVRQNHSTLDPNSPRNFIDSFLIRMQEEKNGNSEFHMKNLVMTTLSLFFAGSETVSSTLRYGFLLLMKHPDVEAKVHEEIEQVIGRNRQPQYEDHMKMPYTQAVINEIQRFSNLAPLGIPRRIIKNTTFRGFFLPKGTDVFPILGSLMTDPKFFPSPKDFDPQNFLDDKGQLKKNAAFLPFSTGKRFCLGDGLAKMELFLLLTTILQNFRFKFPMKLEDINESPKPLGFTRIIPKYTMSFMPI
Protocol: Identification of the drug metabolizing enzymes (DMEs) of A-998679 was studied in cDNA expressed recombinant enzymes prepared from baculovirus infected insect cells over-expressing rat Cyp isoforms (BD Gentest, Woburn, MA) as listed in Table 2. Incubations were conducted in duplicate using Supersomes. The incubation mixture contained 100 pmol/ml of enzymes, except for Cyp1a1 (200 pmol/ml), 0.1 or 0.21 μM of [^3H]A-998679 in 100 mM phosphate buffer (pH 7.4). Reactions were initiated with the addition of NADPH at a final concentration of 1 mM and incubated at 37°C for 60 min. At the end of the incubation period, the incubations were terminated by the addition of acetonitrile/ethanol (50/50, v/v) solution. Insect control samples lacking expressed enzyme were used as negative control. The degree of metabolism of A-998679 was assessed by percent of parent remaining using the radio-HPLC method described below.
Radiolabeled components from the above assays were profiled following separation by HPLC with on line radioflow detector. The system consisted of an Agilent 1100 Series quaternary pump and autosampler connected to a Packard 500TR flow scintillation detector. The data were processed using the Radiomatic™ Flo-one® software v3.65. The scintillant (Perkin Elmer FLO-SCINT™ III) flow was maintained at 3 ml/min. […]

CYP2C9 = target: T2, CYP2C9 (Homo sapiens, UniProt P11712); assay: CYP inhibition evaluation in human liver microsomes, CYP2C9 (diclofenac); assay type: in vitro ADME; conditions: probe substrate diclofenac
T2 construct: from tissue; host or cells: human liver microsomes
T2 sequence (P11712 whole entry): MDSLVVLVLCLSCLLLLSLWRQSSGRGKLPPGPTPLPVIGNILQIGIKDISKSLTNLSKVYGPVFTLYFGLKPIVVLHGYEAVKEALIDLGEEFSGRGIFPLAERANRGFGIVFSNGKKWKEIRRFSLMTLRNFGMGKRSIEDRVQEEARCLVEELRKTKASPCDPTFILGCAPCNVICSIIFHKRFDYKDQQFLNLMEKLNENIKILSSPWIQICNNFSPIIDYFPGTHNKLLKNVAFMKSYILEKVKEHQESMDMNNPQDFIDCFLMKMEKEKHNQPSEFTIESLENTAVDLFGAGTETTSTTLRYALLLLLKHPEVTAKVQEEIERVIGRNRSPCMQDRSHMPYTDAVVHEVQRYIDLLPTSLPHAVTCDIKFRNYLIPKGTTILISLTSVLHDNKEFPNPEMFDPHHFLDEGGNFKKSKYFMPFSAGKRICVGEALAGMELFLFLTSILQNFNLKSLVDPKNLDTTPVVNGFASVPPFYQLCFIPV
Protocol: Incubations were performed in human liver microsomes using probe substrate concentrations similar to their corresponding Km values. Enzyme activity was evaluated in the presence of various concentrations of A-998679. The incubations consisted of the test article at varying concentrations (0–30 μM), probe substrate (concentration ~Km, see Table A2), human liver microsomal protein and 1 mM NADPH in 50 mM phosphate buffer at pH 7.4. Relative quantitation of the metabolites was obtained by LC-MS/MS using an ABSciex (Foster City, CA) API3000 or API4000 Qtrap hybrid linear ion trap mass spectrometer equipped with a TurboIonspray source using either PerkinElmer series 200 pumps or Agilent 1100 series pump with a Leap autosampler. Analytes were separated using a Phenomenex Prodigy ODS(3) 5 μm, 50 × 2.0 mm column at 50°C, eluted and detected under the specific conditions listed in Tables A3, A4, and A5. The analyte to internal standard peak area ratios were determined using Analyst 1.4 software (Applied Biosytems, Carlsbad, CA). The peak area ratios observed in the presence of test article were compared to the vehicle control in order to determine percent activity. To determine the IC50, the data were plotted as Log [dose] μM vs. % inhibition, and analyzed with a sigmoidal dose-response (variable slope) fitting equation. […]

- lowest concentration inducing CYP1A2 mRNA (CYP1A2): 3 µM
- % parent remaining (rat Cyp 2A1; recombinant rat Cyp 2A1, 0.10 μM): 100%
- % parent remaining (rat Cyp 2A1; recombinant rat Cyp 2A1, 0.21 μM): 100%
- IC50 (CYP2C9): > 30 µM
Compound: N#Cc1cccc(-c2noc(-c3cccnc3)n2)c1 [A-998679, 3-(5-pyridin-3-yl-1,2,4-oxadiazol-3-yl) benzonitrile]
